Test results from paper PMC8840619, “Conjugation of Palbociclib with MHI-148 Has an Increased Cytotoxic Effect for Breast Cancer Cells and an Altered Mechanism of Action” (Molecules, 2022).
Like-named read-outs stand apart in the source and are kept apart here. Blank lines part the entries; values can stand above or below the compound they belong to.

Tests used:
HEK293 [1] = assay: [3H]-thymidine incorporation cell proliferation assay; type: cell-based, human; details: 3 days of treatment, mean ± SEM
Protocol: (§1) As described previously, 3000 cells per well were seeded in 96-well plates and incubated in the presence of varying concentrations of drugs for three days. Cell proliferation was measured by thymidine uptake assay, cell growth by sulforhodamine B (SRB) colorimetric assay, and cell viability by WST-1 assay, as previously described.
(§2) Briefly, for the proliferation assay, [^3H]-thymidine (0.04 μCi) was added to each well and plates were incubated for 5 h, after which the cells were harvested onto glass–fiber filters using an automated TomTec harvester. Filters were incubated with Betaplate Scint and [^3H]-thymidine incorporation was measured in a Trilux/Betaplate counter. Cell proliferation was determined by the percentage incorporation of [^3H]-thymidine.

MCF-7 [2] = assay: as above; type: cell-based, human; details: 3 days of treatment, mean ± SEM
Protocol: as §1, §2

MDA-MB-231 [3] = assay: as above; type: cell-based, human; details: for IC50: MDA-MB-231, 3 days of treatment, mean ± SEM
Protocol: as §1, §2

51D1.3 [4] = assay: as above; type: cell-based, Chinese hamster; details: 3 days of treatment, mean ± SEM
Protocol: as §1, §2

51D1 [5] = assay: as above; type: cell-based, Chinese hamster; details: 3 days of treatment, mean ± SEM
Protocol: as §1, §2

HEK293 [6] = assay: SRB cell growth assay; type: cell-based, human; details: 3 days of treatment, mean ± SEM
Protocol: as §1
(§3) The SRB colorimetric assay, which is based on the measurement of cellular protein content, was used to measure cell density. After drug treatment for 3 days, cells were fixed with 10% (wt/vol) trichloroacetic acid and stained for 30 min, and the excess dye was removed by washing repeatedly with 1% (vol/vol) acetic acid. The protein-bound dye was dissolved in Tris base solution (10 mM) for optical density determination at 510 nm using a microplate reader. Optimal cell densities were previously determined to select initial cell densities that ensured that cells were in logarithmic phase for the experiments.

MCF-7 [7] = assay: SRB cell growth assay; type: cell-based, human; details: for IC50: 3 days of treatment, mean ± SEM
Protocol: as §1, §3

MDA-MB-231 [8] = assay: SRB cell growth assay; type: cell-based, human; details: for IC50: 3 days of treatment, mean ± SEM
Protocol: as §1, §3

51D1.3 [9] = assay: SRB cell growth assay; type: cell-based, Chinese hamster; details: 3 days of treatment, mean ± SEM
Protocol: as §1, §3

51D1 [10] = assay: SRB cell growth assay; type: cell-based, Chinese hamster; details: 3 days of treatment, mean ± SEM
Protocol: as §1, §3

HEK293 [11] = assay: WST-1 cell viability assay; type: cell-based, human; details: for IC50: 3 days of treatment, mean ± SEM; for EC50: Supplementary Table S1
Protocol: as §1
(§4) For viability, […] activity was measured using a water-soluble tetrazolium salt (WST-1) (purchased from Roche, Basel, Switzerland) after drug treatment for 3 days. The stable tetrazolium salt WST-1 is cleaved to a soluble formazan by a complex cellular mechanism that occurs primarily at the cell surface. This bio-reduction is largely dependent on the glycolytic production of NAD(P)H in viable cells. Therefore, the amount of formazan dye formed directly correlates with the number of metabolically active cells in the culture.

MCF-7 [12] = assay: WST-1 cell viability assay; type: cell-based, human; details: for IC50: 3 days of treatment, mean ± SEM; for EC50: MCF7, Supplementary Table S1
Protocol: as §1, §4

MDA-MB-231 [13] = assay: WST-1 cell viability assay; type: cell-based, human; details: for IC50: 3 days of treatment, mean ± SEM; for EC50: Supplementary Table S1
Protocol: as §1, §4

51D1.3 [14] = assay: WST-1 cell viability assay; type: cell-based, Chinese hamster; details: for IC50: 3 days of treatment, mean ± SEM; for EC50: Supplementary Table S1
Protocol: as §1, §4

51D1 [15] = assay: WST-1 cell viability assay; type: cell-based, Chinese hamster; details: for IC50: 3 days of treatment, mean ± SEM; for EC50: Supplementary Table S1
Protocol: as §1, §4

[16] = Absorbance spectra in DMSO; type: physicochemical; details: 25 °C
Protocol: The absorbance and fluorescence emission spectra of up to 7 three-fold serial dilutions of MHI-148 and MHI-palbociclib in DMSO, ranging from […], were acquired at 25 °C.
• (a) Absorbance spectra of the test compound solutions (200 μL) plated in a 96-well polystyrene flat-bottom transparent microplate were acquired on a quad monochromator-equipped microplate reader Enspire 2300 (Perkin-Elmer; Singapore) from 650 nm to 900 nm in 1 nm increments. • (b) Fluorescence emission spectra of the compound solutions in a 2 mL semi-micro quartz cuvette were measured on a FP-8600 spectrofluorometer (JASCO; Japan) between 790 nm and 850 nm in 1 nm increments at the excitation wavelength of 780 nm. The fluorescence emission was measured at a high sensitivity of the instrument, with an excitation and emission bandwidth of 5 nm, a 50 ms response time, and a scan speed of 1000 nm per minute.

MDA-MB-231 cells [17] = assay: Flow cytometry cell cycle analysis (DNA content, PI); type: cell-based, human; details: 500 nM for 24 h, untreated cells 48%
Protocol: As previously described, cells (1 × 10^6 cells) were grown in six-well plates and incubated with drugs for 24 h. Cells were harvested, washed with 1% FBS/phosphate-buffered saline (PBS), resuspended in 200 μL of PBS, fixed in 2 mL of ice-cold 100% ethanol, and stored overnight at −20 °C. The cells were washed and resuspended in 1 mL of 1% FBS/PBS, containing RNase (1 μg/mL) and propidium iodide (PI) (10 μg/mL), for 30 min at room temperature. DNA content was determined using […] by PI staining based on a total of 25,000 acquired events on a BD Biosciences Accuri C6 flow cytometer, and cell cycle distribution was analysed using FlowJo version 10.7.2.

MDA-MB-231 cells [18] = assay: Propidium iodide staining of dying cells; type: cell-based, human; details: 1 µM for 24 h
Protocol: Cells (1 × 10^6) were incubated with drugs for 24 h. Cells were next incubated with 50 μg/mL PI in growth media for 15 min at room temperature and protected from light. Cell death was monitored by fluorescence staining of DNA by PI and analysed by fluorescent microscopy using a Floid imaging station (460× magnification).

[19] = Behaviour in aqueous environments (solubility observation); type: physicochemical; details: high concentration
MDA-MB-231 [20] = details: data from Finn et al.
MCF-7 [21] = test system: MCF-7; design: method as in earlier work; details: different proliferation assay, ref 21 (Finn et al.), read-out: IC50 proliferation, previously reported; cited from earlier work
MDA-MB-231 [22] = test system: MDA-MB-231; design: method as in earlier work; details: different proliferation assay, ref 21 (Finn et al.), read-out: IC50 proliferation, previously reported; cited from earlier work
MCF-7 [23] = test system: MCF-7; design: method as in PMID 30370249; details: read-out: IC50 proliferation; cited from earlier work
MDA-MB-231 [24] = test system: MDA-MB-231; design: method as in PMID 30370249; details: read-out: IC50 proliferation; cited from earlier work

IC50 (MCF-7 [2]; Homo sapiens, MCF7, 72 h): > 2500 nM
IC50 (MDA-MB-231 [3]; Homo sapiens, 72 h): > 2500 nM
IC50 (MCF-7 [7]; Homo sapiens, MCF7, 72 h): > 2500 nM
IC50 (MDA-MB-231 [8]; Homo sapiens, 72 h): > 2500 nM
IC50 (MCF-7 [12]; Homo sapiens, MCF7, 72 h): > 2500 nM
EC50 (MCF-7 [12]; Homo sapiens): > 2500 nM
IC50 (MDA-MB-231 [13]; Homo sapiens, 72 h): > 2500 nM
EC50 (MDA-MB-231 [13]; Homo sapiens): > 2500 nM
Absorbance λmax [16]: 797 nm
SMILES: CC1(C)C(/C=C/C2=C(Cl)C(=C/C=C3/N(CCCCCC(=O)O)c4ccccc4C3(C)C)/CCC2)=[N+](CCCCCC(=O)O)c2ccccc21.[Br-] [MHI-148, 1-(5-Carboxypentyl)-2-((E)-2-((E)-3-(2-((E)-1-(5-carboxypentyl)-3,3-dimethylindolin-2-ylidene)ethylidene)-2-chlorocyclohex-1-en-1-yl)vinyl)-3,3-dimethyl-3H-indol-1-ium bromide]
IC50 (HEK293 [1]; Homo sapiens, 72 h): > 2500 nM
IC50 (51D1.3 [4]; Cricetulus griseus, 72 h): > 2500 nM
IC50 (51D1 [5]; Cricetulus griseus, 72 h): > 2500 nM
IC50 (HEK293 [6]; Homo sapiens, 72 h): > 2500 nM
IC50 (51D1.3 [9]; Cricetulus griseus, 72 h): > 2500 nM
IC50 (51D1 [10]; Cricetulus griseus, 72 h): > 2500 nM
IC50 (HEK293 [11]; Homo sapiens, 72 h): > 2500 nM
EC50 (HEK293 [11]; Homo sapiens): > 2500 nM
IC50 (51D1.3 [14]; Cricetulus griseus, 72 h): > 2500 nM
EC50 (51D1.3 [14]; Cricetulus griseus): > 2500 nM
IC50 (51D1 [15]; Cricetulus griseus, 72 h): > 2500 nM
EC50 (51D1 [15]; Cricetulus griseus): > 2500 nM

SMILES: CC(=O)c1c(C)c2cnc(Nc3ccc(N4CCN(C(=O)CCCCCN5/C(=C/C=C6\CCCC(/C=C/C7=[N+](CCCCCC(=O)N8CCN(c9ccc(Nc%10ncc%11c(C)c(C(C)=O)c(=O)n(C%12CCCC%12)c%11n%10)nc9)CC8)c8ccccc8C7(C)C)=C6Cl)C(C)(C)c6ccccc65)CC4)cn3)nc2n(C2CCCC2)c1=O.[Br-] [MHI-palbociclib]
IC50 (HEK293 [1]): 170 ± 4.1 nM
IC50 (MCF-7 [2]): 215.4 ± 0.8 nM
IC50 (MDA-MB-231 [3]): 170 ± 9.7 nM
IC50 (51D1.3 [4]): 217 ± 8.7 nM
IC50 (51D1 [5]): 205 ± 4.6 nM
IC50 (HEK293 [6]): 171 ± 7.9 nM
Growth inhibitory effect compared with combination of unconjugated palbociclib and MHI-148 (MCF-7 [7]; 2.5 μM, 3 days, t-test p = 0.002): significantly greater
IC50 (MCF-7 [7]): 506 ± 93.6 nM
Growth inhibitory effect compared with combination of unconjugated palbociclib and MHI-148 (MDA-MB-231 [8]; 2.5 μM, 3 days, t-test p = 0.003): significantly greater
IC50 (MDA-MB-231 [8]): 683 ± 29.6 nM
IC50 (51D1.3 [9]): 164 ± 6.8 nM
IC50 (51D1 [10]): 187 ± 3.9 nM
IC50 (HEK293 [11]): 418 ± 68.3 nM
EC50 (HEK293 [11]): 544 nM
IC50 (MCF-7 [12]): 845 ± 34.3 nM
IC50 (MDA-MB-231 [13]): 1020 ± 150 nM
EC50 (MDA-MB-231 [13]): 872 nM
IC50 (51D1.3 [14]): 401 ± 89 nM
EC50 (51D1.3 [14]): 471 nM
IC50 (51D1 [15]): 197 ± 15.7 nM
EC50 (51D1 [15]): 265 nM
G1 cell cycle arrest (proportion of cells in G1) (MDA-MB-231 cells [17]): 55%
PI staining of dying cells (cytotoxic effect) (MDA-MB-231 cells [18]): increased PI staining and reduced cell number
Absorbance λmax [16]: 800 nm
Behaviour in aqueous environments [19]: rapidly precipitates in aqueous environments

SMILES: CC(=O)c1c(C)c2cnc(Nc3ccc(N4CCNCC4)cn3)nc2n(C2CCCC2)c1=O [Palbociclib]
IC50 (MCF-7 [2]; Homo sapiens, MCF7, 72 h): 29.1 ± 8.6 nM
IC50 (MDA-MB-231 [3]; Homo sapiens, 72 h): 72.2 ± 2.8 nM
Fold difference of the IC50 of the two cell lines (MDA-MB-231 vs MCF-7) (MDA-MB-231 [3]; thymidine incorporation, own data): 2.5 fold
IC50 (HEK293 [6]; Homo sapiens, 72 h): > 2500 nM
IC50 (MCF-7 [7]; Homo sapiens, MCF7, 72 h): > 2500 nM
IC50 (MDA-MB-231 [8]; Homo sapiens, 72 h): > 2500 nM
IC50 (51D1.3 [9]; Cricetulus griseus, 72 h): > 2500 nM
IC50 (51D1 [10]; Cricetulus griseus, 72 h): > 2500 nM
IC50 (HEK293 [11]; Homo sapiens, 72 h): > 2500 nM
EC50 (HEK293 [11]; Homo sapiens): > 2500 nM
IC50 (MCF-7 [12]; Homo sapiens, MCF7, 72 h): > 2500 nM
EC50 (MCF-7 [12]; Homo sapiens): > 2500 nM
IC50 (MDA-MB-231 [13]; Homo sapiens, 72 h): > 2500 nM
EC50 (MDA-MB-231 [13]; Homo sapiens): > 2500 nM
IC50 (51D1.3 [14]; Cricetulus griseus, 72 h): > 2500 nM
EC50 (51D1.3 [14]; Cricetulus griseus): > 2500 nM
IC50 (51D1 [15]; Cricetulus griseus, 72 h): > 2500 nM
EC50 (51D1 [15]; Cricetulus griseus): > 2500 nM
G1 cell cycle arrest (proportion of cells in G1) (MDA-MB-231 cells [17]): 87%
PI staining of dying cells (cytotoxic effect) (MDA-MB-231 cells [18]): minimal PI staining
Fold difference of the IC50 of the two cell lines (MDA-MB-231 vs MCF-7) (MDA-MB-231 [20]): 2.9 fold
IC50 (MCF-7 [21]): 148 ± 25.7 nM
IC50 (MDA-MB-231 [22]): 432 ± 16.1 nM

SMILES: CC(=O)O[C@H]1C(=O)[C@@]2(C)[C@H]([C@H](OC(=O)c3ccccc3)[C@]3(O)C[C@H](OC(=O)[C@H](O)[C@@H](NC(=O)c4ccccc4)c4ccccc4)C(C)=C1C3(C)C)[C@]1(OC(C)=O)CO[C@@H]1C[C@@H]2O [paclitaxel]
IC50 (MCF-7 [23]): 9.05 ± 0.04 nM
IC50 (MDA-MB-231 [24]): 5.8 ± 1.13 nM
